Results published in ChEMBL document CHEMBL1133788, “Structure--activity relationships of side-chain modified didemnins” (Bioorg Med Chem Lett, 2001).

How the values were obtained:
Assay type in all cases: functional
[1] = Growth inhibitory activity evaluated in NCI-60 tumor cell screen; conditions: Homo sapiens
[2] = Lethal concentration for inhibitory activity evaluated in NCI-60 tumor cell screen; conditions: human
[3] = Total Growth inhibitory activity evaluated in NCI-60 tumor cell screen; conditions: Homo sapiens

Compound: CC[C@H](C)[C@H]1NC(=O)[C@@H](NC(=O)[C@@H](CC(C)C)N(C)C(=O)[C@H]2C=CCN2)[C@@H](C)OC(=O)[C@H](Cc2ccc(OC)cc2)N(C)C(=O)[C@@H]2CCCN2C(=O)[C@H](CC(C)C)NC(=O)[C@@H](C)C(=O)[C@H](C(C)C)OC(=O)C[C@@H]1O
- GI50 [1]: 3 nM
- LC50 [2]: 7000 nM
- TGI [3]: 39 nM

Compound: CC[C@H](C)[C@H]1NC(=O)[C@@H](NC(=O)[C@@H](CC(C)C)N(C)C[C@@H]2CCCN2C(=O)[C@@H](C)O)[C@@H](C)OC(=O)[C@H](Cc2ccc(OC)cc2)N(C)C(=O)[C@@H]2CCCN2C(=O)[C@H](CC(C)C)NC(=O)[C@@H](C)C(=O)[C@H](C(C)C)OC(=O)C[C@@H]1O
- GI50 [1]: 4 nM
- LC50 [2]: 3000 nM
- TGI [3]: 76 nM

Compound: CC[C@H](C)[C@H]1NC(=O)[C@@H](NC(=O)[C@@H](CC(C)C)N(C)C(=O)[C@@H]2C=CCN2C(=O)[C@@H](C)O)[C@@H](C)OC(=O)[C@H](Cc2ccc(OC)cc2)N(C)C(=O)[C@@H]2CCCN2C(=O)[C@H](CC(C)C)NC(=O)[C@@H](C)C(=O)[C@H](C(C)C)OC(=O)C[C@@H]1O
- GI50 [1]: 2.8 nM
- LC50 [2]: 83 nM
- TGI [3]: 20 nM

Compound: CC[C@H](C)[C@H]1NC(=O)[C@@H](NC(=O)[C@@H](CC(C)C)N(C)C(=O)CNC(=O)Cc2cc(=O)oc3cc(N(C)C)ccc23)[C@@H](C)OC(=O)[C@H](Cc2ccc(OC)cc2)N(C)C(=O)[C@@H]2CCCN2C(=O)[C@H](CC(C)C)NC(=O)[C@@H](C)C(=O)[C@H](C(C)C)OC(=O)C[C@@H]1O
- GI50 [1]: 11 nM
- LC50 [2]: 7200 nM
- TGI [3]: 20.5 nM

Compound: CC[C@H](C)[C@H]1NC(=O)[C@@H](NC(=O)[C@@H](CC(C)C)N(C)C(=O)C2CCCN2)[C@@H](C)OC(=O)[C@H](Cc2ccc(OC)cc2)N(C)C(=O)[C@@H]2CCCN2C(=O)[C@H](CC(C)C)NC(=O)[C@@H](C)C(=O)[C@H](C(C)C)OC(=O)C[C@@H]1O (stereo not given in full)
- GI50 [1]: 0.62 nM
- LC50 [2]: 210 nM
- TGI [3]: 12 nM
